In patent US20260285850A1, “SUBSTITUTED OXAZOLIDINONES AND IMIDAZOLINONES AS HERBICIDES” (FMC CORPORATION, priority 2023, published 2026):

What was measured:
Format in all cases: in vivo
corn (Zea mays) [1] = assay: Test A preemergence soil spray, visual injury rating 0-100; conditions: 10 days, 0 = no effect, 100 = complete control; for Corn plant response rating (0-100): 31 g ai/ha; for Corn plant response rating (0 to 100 scale): 125 g ai/ha
In short: (§1)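 Rating: visual, day 10, untreated plants as reference, 0 no effect to 100 full control. Plants were in loam-sand and were treated either preemergence via directed soil spray or postemergence at the one- to two-leaf stage.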

[2] = system: ragweed (common ragweed, Ambrosia artemisiifolia); assay: as above; conditions: 10 days, 0 = no effect, 100 = complete control; for Ragweed plant response rating (0-100): 31 g ai/ha; for Ragweed plant response rating (0 to 100 scale): 125 g ai/ha
In short: as §1

[3] = system: barnyardgrass (Echinochloa crus-galli); assay: as above; conditions: 10 days, 0 = no effect, 100 = complete control; for Barnyardgrass plant response rating (0-100): 31 g ai/ha; for Barnyardgrass plant response rating (0 to 100 scale): 125 g ai/ha
In short: as §1

[4] = system: blackgrass (Alopecurus myosuroides); assay: as above; conditions: 10 days, 0 = no effect, 100 = complete control; for Blackgrass plant response rating (0-100): 31 g ai/ha; for Blackgrass plant response rating (0 to 100 scale): 125 g ai/ha
In short: as §1

kochia (Bassia scoparia) [5] = assay: as above; conditions: 10 days, 0 = no effect, 100 = complete control; for Kochia plant response rating (0-100): 31 g ai/ha; for Kochia plant response rating (0 to 100 scale): 125 g ai/ha
In short: as §1

[6] = system: palmer (palmer amaranth, palmer pigweed, Amaranthus palmeri); assay: as above; conditions: 10 days, 0 = no effect, 100 = complete control; for Amaranth, Palmer plant response rating (0-100): 31 g ai/ha; for Amaranth, Palmer plant response rating (0 to 100 scale): 125 g ai/ha
In short: as §1

[7] = system: ryegrass, Italian (italian ryegrass, Lolium multiflorum); assay: as above; conditions: 10 days, 0 = no effect, 100 = complete control; for Ryegrass, Italian plant response rating (0-100): 31 g ai/ha; for Ryegrass, Italian plant response rating (0 to 100 scale): 125 g ai/ha
In short: as §1

[8] = system: wheat (Triticum aestivum); assay: as above; conditions: 10 days, 0 = no effect, 100 = complete control; for Wheat plant response rating (0-100): 31 g ai/ha; for Wheat plant response rating (0 to 100 scale): 125 g ai/ha
In short: as §1

[9] = system: oat, wild (wild oat, Avena fatua); assay: as above; conditions: 10 days, 0 = no effect, 100 = complete control; for Oat, Wild plant response rating (0-100): 31 g ai/ha; for Oat, Wild plant response rating (0 to 100 scale): 125 g ai/ha
In short: as §1

soybean (Glycine max) [10] = assay: as above; conditions: 10 days, 0 = no effect, 100 = complete control; for Soybean plant response rating (0-100): 31 g ai/ha; for Soybean plant response rating (0 to 100 scale): 125 g ai/ha
In short: as §1

rice (Oryza sativa) = assay: Test B flooded paddy test, visual plant response rating 0-100; conditions: 250 g ai/ha, Flood, applied to paddy water, evaluated after 13 days
In short: (§2)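 Compounds applied to standing paddy water (3 cm above soil, maintained for the test duration) on 2-leaf-stage plants; visual rating vs controls at 13 days, greenhouse.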

[11] = system: ducksalad (Heteranthera limosa); assay: as above; conditions: 250 g ai/ha, Flood, applied to paddy water, evaluated after 13 days
In short: as §2

[12] = system: barnyardgrass (Echinochloa crusgalli); assay: as above; conditions: 250 g ai/ha, Flood, applied to paddy water, evaluated after 13 days
In short: as §2

[13] = system: sedge, umbrella (small-flower umbrella sedge, Cyperus difformis); assay: as above; conditions: 250 g ai/ha, Flood, applied to paddy water, evaluated after 13 days
In short: as §2

corn (Zea mays) [14] = assay: Test A postemergence application, visual injury rating 0-100; conditions: Postemergence
In short: as §1

[15] = system: ragweed (common ragweed, Ambrosia artemisiifolia); assay: as above; conditions: Postemergence
In short: as §1

[16] = system: barnyardgrass (Echinochloa crus-galli); assay: as above; conditions: Postemergence
In short: as §1

[17] = system: blackgrass (Alopecurus myosuroides); assay: as above; conditions: Postemergence
In short: as §1

kochia (Bassia scoparia) [18] = assay: as above; conditions: Postemergence
In short: as §1

[19] = system: palmer (palmer amaranth, palmer pigweed, Amaranthus palmeri); assay: as above; conditions: Postemergence
In short: as §1

[20] = system: ryegrass, Italian (italian ryegrass, Lolium multiflorum); assay: as above; conditions: Postemergence
In short: as §1

[21] = system: galium (catchweed bedstraw, Galium aparine); assay: as above; conditions: Postemergence
In short: as §1

[22] = system: wheat (Triticum aestivum); assay: as above; conditions: Postemergence
In short: as §1

[23] = system: oat, wild (wild oat, Avena fatua); assay: as above; conditions: Postemergence
In short: as §1

soybean (Glycine max) [24] = assay: as above; conditions: Postemergence
In short: as §1

[25] = system: horseweed (Erigeron canadensis); assay: as above; conditions: Postemergence
In short: as §1

[26] = 31 g ai/ha, greenhouse 10 days, 0 no effect, 100 complete control
[27] = 125 g ai/ha, 10 days, 0 is no effect, 100 is complete control

CC1(C(=O)NC2CC=C(C(=O)OCC(F)(F)F)C2)CN(c2cc(Cl)cc(Cl)c2)C(=O)O1 (stereo not drawn) [Compound 71]
80: Plant response rating, Barnyardgrass (0 to 100 scale, 0 is no effect and 100 is complete control) [12] | Blackgrass plant response rating (0 to 100 scale) [17, 26] | Kochia plant response rating (0 to 100 scale) (kochia (Bassia scoparia) [18]; [26]) | Galium plant response rating (0 to 100 scale) [21, 26] | Galium plant response rating (0 to 100 scale) [21, 27] | Wheat plant response rating (0 to 100 scale) [22, 26]
90: Barnyardgrass plant response rating (0 to 100 scale) [3] | Kochia plant response rating (0 to 100 scale) (kochia (Bassia scoparia) [5]) | Amaranth, Palmer plant response rating (0-100) [6] | Wheat plant response rating (0 to 100 scale) [8] | Barnyardgrass plant response rating (0 to 100 scale) [16, 26] | Barnyardgrass plant response rating (0 to 100 scale) [16, 27] | Blackgrass plant response rating (0 to 100 scale) [17, 27] | Kochia plant response rating (0 to 100 scale) (kochia (Bassia scoparia) [18]; [27]) | Amaranth, Palmer / Pigweed, Palmer plant response rating (0 to 100 scale) [19, 26] | Amaranth, Palmer / Pigweed, Palmer plant response rating (0 to 100 scale) [19, 27] | Wheat plant response rating (0 to 100 scale) [22, 27] | Oat, Wild plant response rating (0 to 100 scale) [23, 27] | Soybean plant response rating (0 to 100 scale) (soybean (Glycine max) [24]; [27])
70: Kochia plant response rating (0-100) (kochia (Bassia scoparia) [5]) | Ryegrass, Italian plant response rating (0 to 100 scale) [7] | Soybean plant response rating (0 to 100 scale) (soybean (Glycine max) [10]) | Plant response rating, Ducksalad (0 to 100 scale, 0 is no effect and 100 is complete control) [11] | Ryegrass, Italian plant response rating (0 to 100 scale) [20, 27] | Soybean plant response rating (0 to 100 scale) (soybean (Glycine max) [24]; [26]) | Horseweed plant response rating (0 to 100 scale) [25, 27]
60: Wheat plant response rating (0-100) [8] | Ragweed plant response rating (0 to 100 scale) [15, 26] | Ragweed plant response rating (0 to 100 scale) [15, 27] | Ryegrass, Italian plant response rating (0 to 100 scale) [20, 26]
30: Corn plant response rating (0-100) (corn (Zea mays) [1]) | Ragweed plant response rating (0 to 100 scale) [2] | Oat, Wild plant response rating (0 to 100 scale) [9]
100: Amaranth, Palmer plant response rating (0 to 100 scale) [6] | Plant response rating, Sedge, Umbrella (0 to 100 scale, 0 is no effect and 100 is complete control) [13] | Corn plant response rating (0 to 100 scale) (corn (Zea mays) [14]; [26]) | Corn plant response rating (0 to 100 scale) (corn (Zea mays) [14]; [27])
0: Ragweed plant response rating (0-100) [2] | Blackgrass plant response rating (0-100) [4]
85: Plant response rating, Rice (0 to 100 scale, 0 is no effect and 100 is complete control) (rice (Oryza sativa))
10: Soybean plant response rating (0-100) (soybean (Glycine max) [10]) | Horseweed plant response rating (0 to 100 scale) [25, 26]
20: Oat, Wild plant response rating (0-100) [9]
40: Ryegrass, Italian plant response rating (0-100) [7] | Oat, Wild plant response rating (0 to 100 scale) [23, 26]
50: Corn plant response rating (0 to 100 scale) (corn (Zea mays) [1]) | Barnyardgrass plant response rating (0-100) [3] | Blackgrass plant response rating (0 to 100 scale) [4]

CC1(C(=O)NC2CC=C(C(=O)O)C2)CN(c2cc(Cl)cc(Cl)c2)C(=O)O1 (stereo not drawn) [Compound 72]
10: Oat, Wild plant response rating (0-100) [9]
80: Kochia plant response rating (0-100) (kochia (Bassia scoparia) [5]) | Ryegrass, Italian plant response rating (0 to 100 scale) [7] | Wheat plant response rating (0 to 100 scale) [8] | Soybean plant response rating (0 to 100 scale) (soybean (Glycine max) [10]) | Kochia plant response rating (0 to 100 scale) (kochia (Bassia scoparia) [18]; [26]) | Kochia plant response rating (0 to 100 scale) (kochia (Bassia scoparia) [18]; [27]) | Galium plant response rating (0 to 100 scale) [21, 26] | Galium plant response rating (0 to 100 scale) [21, 27] | Wheat plant response rating (0 to 100 scale) [22, 26] | Soybean plant response rating (0 to 100 scale) (soybean (Glycine max) [24]; [26]) | Horseweed plant response rating (0 to 100 scale) [25, 27]
75: Plant response rating, Ducksalad (0 to 100 scale, 0 is no effect and 100 is complete control) [11]
70: Ragweed plant response rating (0 to 100 scale) [15, 27] | Ryegrass, Italian plant response rating (0 to 100 scale) [20, 26] | Ryegrass, Italian plant response rating (0 to 100 scale) [20, 27] | Horseweed plant response rating (0 to 100 scale) [25, 26]
60: Corn plant response rating (0 to 100 scale) (corn (Zea mays) [1]) | Barnyardgrass plant response rating (0-100) [3] | Oat, Wild plant response rating (0 to 100 scale) [23, 27]
30: Blackgrass plant response rating (0 to 100 scale) [4]
85: Plant response rating, Rice (0 to 100 scale, 0 is no effect and 100 is complete control) (rice (Oryza sativa))
98: Plant response rating, Sedge, Umbrella (0 to 100 scale, 0 is no effect and 100 is complete control) [13]
50: Ragweed plant response rating (0 to 100 scale) [15, 26]
100: Amaranth, Palmer plant response rating (0 to 100 scale) [6] | Corn plant response rating (0 to 100 scale) (corn (Zea mays) [14]; [26]) | Corn plant response rating (0 to 100 scale) (corn (Zea mays) [14]; [27])
40: Ragweed plant response rating (0 to 100 scale) [2] | Ryegrass, Italian plant response rating (0-100) [7] | Wheat plant response rating (0-100) [8] | Oat, Wild plant response rating (0 to 100 scale) [9] | Oat, Wild plant response rating (0 to 100 scale) [23, 26]
90: Barnyardgrass plant response rating (0 to 100 scale) [3] | Kochia plant response rating (0 to 100 scale) (kochia (Bassia scoparia) [5]) | Amaranth, Palmer plant response rating (0-100) [6] | Barnyardgrass plant response rating (0 to 100 scale) [16, 26] | Barnyardgrass plant response rating (0 to 100 scale) [16, 27] | Blackgrass plant response rating (0 to 100 scale) [17, 26] | Blackgrass plant response rating (0 to 100 scale) [17, 27] | Amaranth, Palmer / Pigweed, Palmer plant response rating (0 to 100 scale) [19, 26] | Amaranth, Palmer / Pigweed, Palmer plant response rating (0 to 100 scale) [19, 27] | Wheat plant response rating (0 to 100 scale) [22, 27] | Soybean plant response rating (0 to 100 scale) (soybean (Glycine max) [24]; [27])
0: Corn plant response rating (0-100) (corn (Zea mays) [1]) | Ragweed plant response rating (0-100) [2] | Blackgrass plant response rating (0-100) [4] | Soybean plant response rating (0-100) (soybean (Glycine max) [10])
55: Plant response rating, Barnyardgrass (0 to 100 scale, 0 is no effect and 100 is complete control) [12]
